# Key:
# [1] = molecular target: CA II (Homo sapiens, UniProt P00918); test: Carbonic anhydrase inhibition assay (p-nitrophenyl acetate hydrolysis, colorimetric, 348 nm)
# Experimental: Carbonic anhydrase inhibition activity was carried out using an already developed method [19] with slight modification. The principle of the current method is centered on that “CA hydrolyses the p-nitrophenyl acetate to p-nitrophenol” which is determined by spectrophotometrically. Reaction mixture contained 60 μL of 50 mM Tris-sulfate buffer (pH 7.6 containing 0.1 mM ZnCl2) and 10 μL (0.5 mM) test compound in 1% DMSO. […] Preparation of p-nitrophenyl acetate was done by taking 6 mM stock using <5% acetonitrile in buffer and was used fresh. Each well was filled with 20 μL solution to attain 0.6 mM concentration. The total reaction volume was made to 100 μL.
# [2] = molecular target: CA XII (Homo sapiens, UniProt O43570); test: Carbonic anhydrase inhibition assay (p-nitrophenyl acetate hydrolysis, colorimetric, 348 nm); settings: for CAXII % inhibition: given instead of Ki where inhibition <50%, test compound 10 μL (0.5 mM), b52 says 1.0 mM
# [3] = molecular target: T1, CA IX (Homo sapiens, UniProt Q16790); test: as above; assay type: biochemical; settings: mean of three independent experiments ± SEM; pH 7.6; read-out: CAIX Ki (μM ± SEM)
# T1 construct: His-tag; made in house
# Experimental: All three isozymes, CA II, CA IX, and CA XII, were produced using the same protocol done for each. Transformation was the first step to be done in which the plasmids and the off-spark plasmids of CA II, CA IX, and CA XII were transformed into competent E. coli bacteria using the heat shock method, cells were grown in agar, then a colony was selected for further growth in LB broth, cells were collected by centrifugation according to the methods described in [25], and the plasmid was extracted according to the kit protocol using SanPrep column plasmid miniprep kit obtained from Sangon Biotech. […] Six hours later, the media were aspirated, and the fresh prepared (+10% FBS and 1% pen/strep) media were added to the cells. On the next day, the cells were inspected for their viability, and new media were used for the selection process which were DMEM, FBS, and hygromycin B using a final concentration of 200 μg/mL. The cells were grown in the selective media, and when they reached 70 to 80% confluency, the offs-park plasmid transfected cells were checked under a fluorescent microscope to insure the production of the protein; then, the cells transfected with the His-tagged plasmid were collected for making the cell lysate following the method described by by centrifugation of the cells at 2000 rpm for 5 minutes, washed with PBS, and again centrifuged; the pellet was then suspended in the cell lysis buffer, incubated in ice for 15 minutes, and centrifuged again at 10000 g at 4°C for 15 minutes, and here, the pellet was discarded and the supernatant was collected for purification using Ni-NTA Sepharose column according to the manufacturer's protocol. And the eluting solution was quantified using the protein quantification technique Biuret assay and Bradford reagent for protein quantification.
# Carbonic anhydrase inhibition activity was carried out using an already developed method with slight modification. The principle of the current method is centered on that “CA hydrolyses the p-nitrophenyl acetate to p-nitrophenol” which is determined by spectrophotometrically. Reaction mixture contained 60 μL of 50 mM Tris-sulfate buffer (pH 7.6 containing 0.1 mM ZnCl2) and 10 μL (0.5 mM) test compound in 1% DMSO. […] Preparation of p-nitrophenyl acetate was done by taking 6 mM stock using <5% acetonitrile in buffer and was used fresh. Each well was filled with 20 μL solution to attain […] concentration. The total reaction volume was made to 100 μL.
# CA XII, sequence (O43570 25-354): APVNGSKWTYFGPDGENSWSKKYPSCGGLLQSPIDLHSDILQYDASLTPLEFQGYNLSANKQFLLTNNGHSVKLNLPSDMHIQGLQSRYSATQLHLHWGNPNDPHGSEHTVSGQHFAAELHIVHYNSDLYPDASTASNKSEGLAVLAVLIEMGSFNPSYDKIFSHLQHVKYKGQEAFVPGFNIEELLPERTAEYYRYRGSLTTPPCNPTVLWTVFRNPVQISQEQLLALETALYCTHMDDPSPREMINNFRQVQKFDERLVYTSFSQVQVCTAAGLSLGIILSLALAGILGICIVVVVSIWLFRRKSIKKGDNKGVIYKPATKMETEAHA
SMILES,Ki [1],melting point,CAXII % inhibition [2],Ki [3],Ki [2]
"COc1cc(C)ccc1C(=O)NNS(=O)(=O)c1ccc([N+](=O)[O-])cc1 [Compound 19, N′-(2-Methoxy-4-methylbenzoyl)-4-nitrobenzenesulfonohydrazide]",680 ± 20 nM,220 to 222 °C,44.4%,0.58 ± 0.04 µM,–
"COc1cc(C)ccc1C(=O)NNS(=O)(=O)c1ccc(Br)cc1 [Compound 20, 4-Bromo-N′-(2-methoxy-4-methylbenzoyl)benzenesulfonohydrazide]",660 ± 40 nM,168 to 169 °C,–,0.56 ± 0.05 µM,990 ± 100 nM
"COc1ccc(S(=O)(=O)NNC(=O)c2ccc(C)cc2OC)cc1 [Compound 21, 4-Methoxy-N′-(2-methoxy-4-methylbenzoyl)benzenesulfono hydrazide]",610 ± 10 nM,159 to 162 °C,–,0.19 ± 0.02 µM,1220 ± 10 nM
"COc1cc(C)ccc1C(=O)NNS(=O)(=O)c1ccc(C)cc1 [Compound 22, N′-(2-Methoxy-4-methylbenzoyl)-4-methylbenzenesulfonohydrazide]",680 ± 10 nM,161 to 163 °C,42.89%,1.04 ± 0.38 µM,–
"COc1cc(C)ccc1C(=O)NNS(=O)(=O)c1ccc2ccccc2c1 [Compound 23, N′-(2-Methoxy-4-methylbenzoyl)naphthalene-2-sulfonohydrazide]",940 ± 20 nM,186 to 187 °C,–,0.19 ± 0.03 µM,750 ± 70 nM
"Cc1ccc(C(=O)NNS(=O)(=O)c2ccc([N+](=O)[O-])cc2)c(O)c1 [Compound 24, N′-(2-Hydroxy-4-methylbenzoyl)-4-nitrobenzenesulfonohydrazide]",340 ± 10 nM,211 to 213 °C,–,0.54 ± 0.06 µM,520 ± 40 nM
"Cc1ccc(C(=O)NNS(=O)(=O)c2ccc(Br)cc2)c(O)c1 [Compound 25, 4-Bromo-N′-(2-hydroxy-4-methylbenzoyl)benzenesulfonohydrazide]",910 ± 20 nM,–,–,0.33 ± 0.03 µM,350 ± 40 nM
"COc1ccc(S(=O)(=O)NNC(=O)c2ccc(C)cc2O)cc1 [Compound 26, N′-(2-Hydroxy-4-methylbenzoyl)-4-methoxybenzenesulfono hydrazide]",960 ± 90 nM,168 to 169 °C,–,0.91 ± 0.09 µM,580 ± 40 nM
"Cc1ccc(S(=O)(=O)NNC(=O)c2ccc(C)cc2O)cc1 [Compound 27, N′-(2-Hydroxy-4-methylbenzoyl)-4-methylbenzenesulfonohydrazide]",1110 ± 40 nM,183 to 185 °C,–,0.51 ± 0.04 µM,430 ± 80 nM
"Cc1ccc(CC(=O)NNS(=O)(=O)c2ccc([N+](=O)[O-])cc2)cc1 [Compound 28, 4-Nitro-N′-(2-(p-tolyl)acetyl)benzenesulfonohydrazide]",460 ± 10 nM,205 to 206 °C,–,0.55 ± 0.01 µM,1020 ± 80 nM
"Cc1ccc(CC(=O)NNS(=O)(=O)c2ccc(Br)cc2)cc1 [Compound 29, 4-Bromo-N′-(2-(p-tolyl)acetyl)benzenesulfonohydrazide]",730 ± 20 nM,156 to 157 °C,–,0.33 ± 0.02 µM,550 ± 10 nM
"COc1ccc(S(=O)(=O)NNC(=O)Cc2ccc(C)cc2)cc1 [Compound 30, 4-Methoxy-N′-(2-(p-tolyl)acetyl)benzenesulfonohydrazide]",740 ± 40 nM,133 to 134 °C,–,0.33 ± 0.03 µM,130 ± 10 nM
"Cc1ccc(CC(=O)NNS(=O)(=O)c2ccc(C)cc2)cc1 [Compound 31, 4-Methyl-N′-(2-(p-tolyl)acetyl)benzenesulfonohydrazide]",670 ± 10 nM,143 to 144 °C,–,0.29 ± 0.02 µM,400 ± 90 nM
"COc1cccc(CC(=O)NNS(=O)(=O)c2ccc([N+](=O)[O-])cc2)c1 [Compound 32, N′-(2-(3-Methoxyphenyl)acetyl)-4-nitrobenzenesulfonohydrazide]",670 ± 60 nM,158 to 159 °C,49.25%,0.32 ± 0.01 µM,–
"COc1cccc(CC(=O)NNS(=O)(=O)c2ccc(Br)cc2)c1 [Compound 33, 4-Bromo-N′-(2-(3-methoxyphenyl)acetyl)benzenesulfonohydrazide]",680 ± 50 nM,153 to 154 °C,–,0.39 ± 0.03 µM,170 ± 10 nM
"COc1ccc(S(=O)(=O)NNC(=O)Cc2cccc(OC)c2)cc1 [Compound 34, 4-Methoxy-N′-(2-(3-methoxyphenyl)acetyl)benzenesulfonohydrazide]",1810 ± 30 nM,146 to 147 °C,–,0.65 ± 0.03 µM,220 ± 60 nM
"COc1cccc(CC(=O)NNS(=O)(=O)c2ccc(C)cc2)c1 [Compound 35, N′-(2-(3-Methoxyphenyl)acetyl)-4-methylbenzenesulfonohydrazide]",3200 ± 140 nM,143 to 144 °C,–,1.18 ± 0.04 µM,340 ± 10 nM
"COc1cccc(CC(=O)NNS(=O)(=O)c2ccc3ccccc3c2)c1 [Compound 36, N′-(2-(3-Methoxyphenyl)acetyl)naphthalene-2-sulfonohydrazide]",920 ± 100 nM,139 to 141 °C,48.88%,0.6 ± 0.01 µM,–
